Source: PubChem BioAssay (NCI)
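1) Cells in 96-well plates. 2) Compound, 48 h, 5 concentrations. 3) Linear interpolation between surrounding doses. 4) Unreached endpoint = highest concentration. TGI is the concentration that stops growth completely.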

Tests used:
Test in all cases: growth of human tumour cells (NCI), 48 h
[1] = system: 786-0 renal
[2] = system: A498 renal
[3] = system: A549 NSCLC
[4] = system: ACHN renal
[5] = system: CAKI-1 renal
[6] = system: CCRF-CEM leukemia
[7] = system: COLO 205 colon
[8] = system: DLD-1 colon
[9] = system: DMS 114 small cell lung
[10] = system: DMS 273 small cell lung
[11] = system: EKVX NSCLC
[12] = system: HCC-2998 colon
[13] = system: HCT-116 colon
[14] = system: HCT-15 colon
[15] = system: HL-60(TB) leukemia
[16] = system: HOP-18 NSCLC
[17] = system: HOP-62 NSCLC
[18] = system: HOP-92 NSCLC
[19] = system: HT29 colon
[20] = system: IGROV1 ovarian
[21] = system: K-562 leukemia
[22] = system: KM12 colon
[23] = system: KM20L2 colon
[24] = system: LOX IMVI melanoma
[25] = system: LXFL 529 NSCLC
[26] = system: M14 melanoma
[27] = system: M19-MEL melanoma
[28] = system: MALME-3M melanoma
[29] = system: MOLT-4 leukemia
[30] = system: NCI-H226 lung
[31] = system: NCI-H23 lung
[32] = system: NCI-H460 lung
[33] = system: NCI-H522 lung
[34] = system: OVCAR-3 ovarian
[35] = system: OVCAR-4 ovarian
[36] = system: OVCAR-5 ovarian
[37] = system: OVCAR-8 ovarian
[38] = system: RPMI-8226 leukemia
[39] = system: RXF 393 renal
[40] = system: RXF-631 renal
[41] = system: SF-268 CNS
[42] = system: SF-295 CNS
[43] = system: SF-539 CNS
[44] = system: SK-MEL-2 melanoma
[45] = system: SK-MEL-28 melanoma
[46] = system: SK-MEL-5 melanoma
[47] = system: SK-OV-3 ovarian
[48] = system: SN12C renal
[49] = system: SNB-19 CNS
[50] = system: SNB-75 CNS
[51] = system: SNB-78 CNS
[52] = system: SR leukemia
[53] = system: SW-620 colon
[54] = system: TK-10 renal
[55] = system: U251 CNS
[56] = system: UACC-257 melanoma
[57] = system: UACC-62 melanoma
[58] = system: UO-31 renal
[59] = system: XF 498 CNS

With CCCCCCCCCCCCC(CC)CCCCC(=O)O (stereo not given) the TGI [1] was > 100 µM, the TGI [2] was > 100 µM and the TGI [3] was > 100 µM. The TGI [4] was > 100 µM, the TGI [5] was > 100 µM and the TGI [6] was 67.6 µM. The TGI [7] was > 100 µM, the TGI [8] was > 100 µM and the TGI [9] was > 100 µM. For the same compound, the TGI [10] was > 100 µM, the TGI [11] was > 100 µM and the TGI [12] was > 100 µM. For the same compound, the TGI [13] was > 100 µM, the TGI [14] was > 100 µM and the TGI [15] was > 90.4 µM. The TGI [16] was > 100 µM, the TGI [17] was > 100 µM and the TGI [18] was > 100 µM. The TGI [19] was > 100 µM, the TGI [20] was > 100 µM and the TGI [21] was > 100 µM. For the same compound, the TGI [22] was > 100 µM, the TGI [23] was > 100 µM and the TGI [24] was > 100 µM. For the same compound, the TGI [25] was > 100 µM, the TGI [26] was > 100 µM and the TGI [27] was > 100 µM. The TGI [28] was > 100 µM, the TGI [29] was 69.7 µM and the TGI [30] was > 100 µM. For the same compound, the TGI [31] was > 100 µM, the TGI [32] was > 100 µM and the TGI [33] was > 100 µM. For the same compound, the TGI [34] was > 100 µM, the TGI [35] was > 100 µM and the TGI [36] was > 100 µM. For the same compound, the TGI [37] was > 100 µM, the TGI [38] was > 100 µM and the TGI [39] was > 86.8 µM. The TGI [40] was > 100 µM, the TGI [41] was > 100 µM and the TGI [42] was > 100 µM. The TGI [43] was > 59.2 µM, the TGI [44] was > 100 µM and the TGI [45] was > 100 µM. For the same compound, the TGI [46] was > 100 µM, the TGI [47] was > 100 µM and the TGI [48] was > 100 µM. The TGI [49] was > 100 µM, the TGI [50] was > 100 µM and the TGI [51] was > 100 µM. For the same compound, the TGI [52] was > 100 µM, the TGI [53] was > 100 µM and the TGI [54] was > 100 µM. The TGI [55] was > 67.8 µM, the TGI [56] was > 100 µM and the TGI [57] was > 100 µM. For the same compound, the TGI [58] was > 100 µM and the TGI [59] was > 100 µM.

O=C(Nc1cc(Cl)c(Cl)cc1Cl)C(=O)C(C(=O)c1ccccc1)C1OC(=O)c2ccccc21 (stereo not given) was tested, and the TGI [1] was > 100 µM, the TGI [2] was > 100 µM and the TGI [3] was > 100 µM. For the same compound, the TGI [4] was > 100 µM, the TGI [5] was > 100 µM and the TGI [6] was > 100 µM. The TGI [7] was > 100 µM, the TGI [8] was > 100 µM and the TGI [9] was > 100 µM. For the same compound, the TGI [10] was > 100 µM, the TGI [11] was > 100 µM and the TGI [12] was > 100 µM. The TGI [13] was > 100 µM, the TGI [14] was > 100 µM and the TGI [15] was > 100 µM. The TGI [16] was > 100 µM, the TGI [17] was > 100 µM and the TGI [18] was > 100 µM. For the same compound, the TGI [19] was > 100 µM, the TGI [20] was > 100 µM and the TGI [21] was > 100 µM. The TGI [22] was > 100 µM, the TGI [23] was > 100 µM and the TGI [24] was > 100 µM. The TGI [25] was > 100 µM, the TGI [26] was > 100 µM and the TGI [27] was > 100 µM. For the same compound, the TGI [28] was > 100 µM, the TGI [29] was > 100 µM and the TGI [30] was > 100 µM. For the same compound, the TGI [31] was > 100 µM, the TGI [32] was > 100 µM and the TGI [33] was > 100 µM. For the same compound, the TGI [34] was > 100 µM, the TGI [35] was > 100 µM and the TGI [36] was > 100 µM. The TGI [37] was > 100 µM, the TGI [38] was > 100 µM and the TGI [39] was > 100 µM. For the same compound, the TGI [40] was > 100 µM, the TGI [41] was > 100 µM and the TGI [42] was > 100 µM. For the same compound, the TGI [45] was > 100 µM, the TGI [47] was > 100 µM and the TGI [48] was > 100 µM. The TGI [49] was > 100 µM, the TGI [50] was > 100 µM and the TGI [51] was > 100 µM. For the same compound, the TGI [52] was > 100 µM, the TGI [53] was > 100 µM and the TGI [54] was > 100 µM. The TGI [55] was > 100 µM, the TGI [56] was > 100 µM and the TGI [57] was > 100 µM. For the same compound, the TGI [58] was > 100 µM and the TGI [59] was > 100 µM.
